Laboratory results taken from patent US8236337B2, “Anti-microbial orthodontic compositions and appliances and methods of production and use thereof” (Selenium, Ltd., priority 2005, dated 2012).

How the values were obtained:
Biofilm formation = assay: Inhibition of biofilm formation by selenium compounds (Example 4); assay type: cell-based; set-up: Percent inhibition of Biofilm formation: concentration or dose not given beside the values
[1] = Superoxide radical generation by selenium modified bonding agent coated on a surface, measured by chemiluminescence; leaching check of soak water
Procedure: In this hydrophobic mixing experiment, a selenium compound comprising a CN protecting group [2-(selenocyanatoacetoxy)butoxyethyl methacrylate] was mixed with the bonding agent 2-(Acetoacetoxy)ethylmethacrylate (AAEMA) to a final selenium concentration of 5%. The selenium composition was then applied to a surface, such as a PMMA plastic or a human toenail (results with both surfaces were the same), preferably at a concentration of about 100 mg/cm^2. The ability of the selenium modified bonding agent to generate superoxide radicals was then measured by chemiluminescence, as shown in FIG. 1. In FIG. 1, “Crude 1” and “Crude 2” refer to a mixture of the selenium labeled material with AAEMA; “pure” refers to the pure selenium labeled compound (no AAEMA); “blank” refers to the AAEMA with no selenium; for “plastic removed”, the mixture-coated plastic was soaked in water, and then after removal of the plastic, the aqueous solution was tested for any selenium that may have come off.

NCC[Se-].[Na+] [Sodium 1-amino,2-seleno ethane]
Biofilm formation, log reduction (Biofilm formation): 3 logs
Percent inhibition of Biofilm formation (Biofilm formation): 99.9%

C=C(C)C(=O)OCCOCC(CC)OC(=O)C[Se]C#N (centres unmarked) [2-(selenocyanatoacetoxy)butoxyethyl methacrylate]
ability to generate superoxide radicals (chemiluminescence) ([1]; mixed with AAEMA to final selenium concentration of 5%, coated on PMMA plastic or human toenail and dried): still demonstrating chemiluminescence
leaching of selenium from coated plastic ("plastic removed" sample) ([1]; mixture-coated plastic soaked in water, aqueous solution tested by chemiluminescence after removal of plastic): no significant leaching

3,4-Bis(selenyl)propionic acid
Biofilm formation, log reduction (Biofilm formation): 2 logs
Percent inhibition of Biofilm formation (Biofilm formation): 99%

3,4-Bis(selenyl)2-hydroxy propanol
Biofilm formation, log reduction (Biofilm formation): 8 logs
Percent inhibition of Biofilm formation (Biofilm formation): 100%

Cl.Cl.NCC[Se][Se]CCN [Selenocystamine 2HCl]
Biofilm formation, log reduction (Biofilm formation): 5 logs
Percent inhibition of Biofilm formation (Biofilm formation): 99.999%

3,4-Bis(selenyl)ethanoic acid
Biofilm formation, log reduction (Biofilm formation): 8 logs
Percent inhibition of Biofilm formation (Biofilm formation): 100%

N#C[Se]CCN [1-amino,2-selenocyanato ethane]
Biofilm formation, log reduction (Biofilm formation): 5 logs
Percent inhibition of Biofilm formation (Biofilm formation): 99.999%

c1ccc([Se][Se]c2ccccc2)cc1 [1,2-Bis(phenyl)diselenide]
Biofilm formation, log reduction (Biofilm formation): 8 logs
Percent inhibition of Biofilm formation (Biofilm formation): 100%

CC(NC(=O)OCC1c2ccccc2-c2ccccc21)[Se]C#N (centres unmarked) [Fmoc-1-amino,1-selenocyanato ethane]
Biofilm formation, log reduction (Biofilm formation): 8 logs
Percent inhibition of Biofilm formation (Biofilm formation): 100%

CC(O)C(O)[Se]C#N (centres unmarked) [1-selenocyanato,2-hydroxy propanol]
Biofilm formation, log reduction (Biofilm formation): 8 logs
Percent inhibition of Biofilm formation (Biofilm formation): 100%

C=C(C)C(=O)OCCOC(=O)CC(C)OC(=O)CC[Se][Se]CCC(=O)OC(C)CC(=O)OCCOC(=O)C(=C)C (centres unmarked) [3-[3-(2-{1-Methyl-2-[2-(2-methyl-acryloyloxy)-ethoxycarbonyl]-ethoxycarbonyl}-ethyldiselenyl)-propionyloxy]-butyric acid 2-(2-methyl-acryloyloxy)-ethyl ester]
Biofilm formation, log reduction (Biofilm formation): 8 logs
Percent inhibition of Biofilm formation (Biofilm formation): 100%

C1CCC(C[Se][Se]CC2CCCCC2)CC1 [1,2-Bis(cyclohexylmethyl)diselenide]
Percent inhibition of Biofilm formation (Biofilm formation): 98%
